Patent US20090156657A1, “ANTI-INFLAMMATORY COMPOSITION” (Ajinomoto Co., Inc., priority 2006, published 2009)

Experiments:
[1] = system: NF-κB (p65); experiment: Activation of NF-κB (nuclear translocation of p65) in HAEC stimulated with high glucose; assay type: cell-based, human; conditions: pre-treatment 5 and 10 μM 24 h, 25 mM glucose 2 h, FIG. 1
Description: In the present invention, the term “suppression of NF-κB activation” means suppression of the translocation of NF-κB into the nucleus. The suppression of the translocation of NF-κB into the nucleus can be confirmed by the method described in Example 1. To be specific, a test substance is added to a culture medium of human aortic endothelial cells, the cells are incubated for a predetermined time, the nucleus is extracted from the aforementioned cells stimulated with glucose, and activated NF-κB (p65) translocated into the nucleus is detected. Using the cells before glucose stimulation, wherein NF-κB is not activated, as a negative control and the cells stimulated with glucose and free of addition of a test substance as a positive control, when the detection level of the aforementioned p65 is closer to the negative control than to the positive control, NF-κB activation is evaluated to have been suppressed.
Human aortic endothelial cells (HAEC) were purchased from Clonetics Corp, and the cells cultured for 3-4 passages (37° C., under 5% carbon dioxide gas atmosphere) were used for the experiment. […] Nucleus was extracted from the cells using Nuclear Extract Kit (Active Motif), and then the activated NF-κB (p65) translocated into the nucleus was detected by TransAM NF-κB p65 Kit (Active Motif).

[2] = system: MCP-1 mRNA; experiment: MCP-1 mRNA expression in HAEC by real-time PCR; assay type: cell-based, human; conditions: 10 μM 24 h, 25 mM glucose 3 h, GAPDH internal standard, FIG. 3B
Description: HAEC cells pre-treated with 10 μM of CS or FS for 24 hours were stimulated with 25 mM glucose for 3 hours, and total RNA was extracted with Isogenkit (NIPPON GENE CO., LTD.). From 1 μg of RNA, cDNA was synthesized using 100 U/mL of reverse transcriptase (TAKARA BIO INC.) and 0.1 μM of oligo (dT)-adapter (TAKARA BIO INC.) (total volume of reaction mixture; 50 μL) (42° C., 40 minutes). Real-time PCR was performed using 7300 Real Time PCR system (Applied Biosystems Japan Ltd.) and the PCR product was detected by SYBER Green I.
PCR reaction composition (RT-PCRkit, TAKARA BIO INC.): 12.5 μL Premix Ex Taq, 2.5 μL SYBER Green I, synthesis primer, ROX reference dye, cDNA (corresponding to 20 ng of total RNA), final reaction volume; 25 μL
Primers having the following sequences were used.
PCR was conducted under the following conditions.
thermal denaturation: at 95° C. for 15 seconds, extension reaction: 40 cycles (3 seconds at 95° C., 31 seconds at 60° C.)
Expression amounts of VCAM-1 and MCP-1 mRNA were calculated using GAPDH as the internal standard.

[3] = system: VCAM-1; experiment: VCAM-1 protein expression on HAEC cell membrane (immunostaining); assay type: cell-based, human; conditions: 0.1-10 μM 24 h, 25 mM glucose 4 h, FIG. 4A
Description: HAEC cells proliferated to confluence in a 96 well microplate were pre-incubated with 0.1-10 μM serotonin derivative for 24 hours, and stimulated with 25 mM glucose for 4 hours. The cell layer was washed with Hanks solution, and then anti-VCAM-1 monoclonal antibody (Becton Dickinson) was added and the cells were incubated at 37° C. for 1 hour. After washing, the cells were incubated with secondary antibody (peroxidase-labeled anti-mouse IgG goat F(ab′)2 fragment; Cappel) for 1 hour. A color development substrate (o-phenylenediamine dihydrochloride) was added and, about 30 minutes later (room temperature), the absorbance (492 nm) of each well was quantified with a microplate reader. The MCP-1 concentration of the medium was quantified with Human MCP-1 Immunoassay Kit (BioSource International).

[4] = system: U-937 cells / HAEC; experiment: Migration capability of monocyte (U-937), Transwell system with HAEC; assay type: cell-based, human; conditions: HAEC pre-incubated 5 or 10 μM 24 h, 25 mM glucose 4 h; FIG. 7
Description: The migration capability of monocyte was measured using the Transwell system (pore size 3 μm; BD Biosciences). HAEC cultured on a transwell placed in a 24 well microplate was pre-incubated with 5 or 10 μM serotonin derivative for 24 hours, and stimulated with 25 mM glucose for 4 hours. 200 μL of U-937 cell suspension (10^6 cells/mL) was added to the transwell and the cells were incubated as-is at 37° C. for 2 hours. The number of cells migrated to the lower chamber of the transwell through the membrane was counted under a microscope (20 fields). The experiment was repeated three times, and the results are shown as an average value thereof. An experiment using fluorescence-labeled U-937 cells was also performed. BCECF-AM-labeled U-937 cells were plated in the upper chamber of the transwell and incubated at 37° C. for 2 hours. The cells migrated to the lower chamber through the membrane were collected in 1 mL of PBS buffer and treated with 1% Triton X for 2 hours. The fluorescence derived from the migrated cells was quantified (Ex. 503 nm, Em. 525 nm) using a fluorescence plate reader (Bio-Rad, Fluoromark).

[5] = IBD model mouse: body weight, ingested feed, water drunk; assay type: in vivo; conditions: IBD model mice
Excerpt: 4 days before IL-10 deficient cell transplantation, total 40 SCID mice (7-week-old, were divided into the following 4 groups 1) to 4) (10 mice in each group) and acclimation to a control diet was simultaneously started. Immediately after cell transfer, the feed was changed to the test diet shown in Table 4, and free ingestion was allowed for 3 weeks. The safflower seed extract powder was the same as that in Example 8, and contained 50 wt % of γ-cyclodextrin. N-Feruloylserotonin (FS) was synthesized according to the method of Experimental Example 1. During the test diet ingestion period, the body weight, the amount of ingested feed and the amount of water drunk were measured 3 times a week to monitor the onset of the disease.
1) Normal group (normal SCID mice×control diet) 2) Control group (IL-10 deficient cell-transplanted SCID mice×control diet) 3) SSE group (IL-10 deficient cell-transplanted SCID mice×SSE diet*) 4) FS group (IL-10 deficient cell-transplanted SCID mice×FS diet**) *containing FS and p-coumaroyl serotonin (CS) at 0.10 and 0.13 wt %, respectively (based on aglycone) (total serotonin derivative content=[…]) **containing 0.4 wt % of FS aglycone

Question: Which “nuclear translocation of p65 (activation of NF-κB)” value [1] does the source give for `COc1cc(/C=C/C(=O)NCCc2c[nH]c3ccc(O)cc23)ccc1O` [FS, N-feruloyl serotonin] here?
Answer: significantly suppressed

Question: And the “expression amount of MCP-1 mRNA” value [2]?
Answer: significantly suppressed the increase

Question: And the “VCAM-1 expression on the cell membrane” value [3]?
Answer: suppressed the induction of their expressions in a dose-dependent manner

Question: What about the “number of U-937 cells migrated into subendothelium space (cell count)” value [4] of the same compound?
Answer: significantly decreased

Question: What about the “body weight change rate (day 0 = 100)” value ([5]; day 21 vs day 0, mean ± SEM) of the same compound?
Answer: 112.5 ± 1.2

Question: And the “body weight, completion of test diet ingestion (day 21)” value ([5]; mean ± SEM)?
Answer: 20.6 ± 0.4 g

Question: What about the “body weight, start of test diet ingestion (day 0)” value ([5]; mean ± SEM, baseline) of the same compound?
Answer: 18.3 ± 0.3 g
